# Laboratory results taken from patent EP1698638A1, “Lipopeptides having pharmaceutical activity” (Technische Universität Berlin, priority 2005, dated 2006).
# Assays:
# Format in all cases: cell-based
# Aspergillus niger = assay: disk diffusion assay on malt agar plates; conditions: 10 µg in 30 µL 50% MeOH per disk
# Ustilago maydis = assay: disk diffusion assay on malt agar plates; conditions: 10 µg in 30 µL 50% MeOH per disk
# [1] = test system: Acremonium strictum RKI 226/03; assay: microdilution assay (NCCLS), inhibitory concentration (IC); conditions: RPMI-1640 medium
# Method: (§1) More specifically, a determination of inhibitory concentration (IC) of hassallidin A and hassallidin B for various fungi, Candida species and Candida strains were performed with different media (RPMI-1640 or SAB or AM3) in a microdilution assay by following the guidelines in NCCLS documents M^38-P^25 and M27-A2^26 carried out as follows Each substance was dissolved with 100% dimethyl sulfoxide (Serva, Heidelberg, Germany) to give a stock solution of 3.2 mg/ml followed by nine log2 dilution steps with the solvent. This served as a 100-fold concentrated dilution series ranging from 1.6 mg/ml to 0.003 mg/ml of the test substance. The final concentration of the test substance was 16 µg/ml to 0.031 µg/ml.
# (§2) Therefore the 100-fold concentrated dilution series (with 100% DMSO) was diluted to the final concentration by two dilution steps: • (1) Each concentration of the 100-fold concentrated substance was diluted with test medium for 1:50 (for ex.: adding of 13 µl of the test substance to 637 µl test medium). • (2) 100 µl of each 1:50 diluted concentration was filled in a row of wells of a microtitre plate. One well was without the substance but with the 1:50 diluted solvent serving as growth control.
# (§3) A further 1:2 dilution of the antifungal was made by the inoculation of each well with 100 µl of the test organism, which was suspended in the test medium. The remaining well of the row was used for sterility control of the medium. The inoculum was strictly prepared according the NCCLS^25 guidelines, resulting in […] for Candida-species and Cryptococcus neoformans. For hyphomycetes CFU's were tenfold higher (see NCCLS). ^26 The growth of the hyphomycetes respectively the inhibition was measured by visual reading with the help of a reading mirror; scoring was done according to NCCLS :^26 score 0 corresponds to a optical clear well or an IC95 or higher, score 1 corresponds to an inhibition of 80 percent (IC80) and the score 2 of the NCCLS definition corresponds to the IC50 values in the tables. The growth of the yeasts was measured spectrophotometrically by a microplate reader (MR 5000, Dynatech laboratories) at 630 nm displaying the optical density (OD). The percent inhibition IC50, IC80 or IC95 (corresponding the scores of 2, 1 and 0) was calculated by the following formula: (100−[(ODof the well−ODof the medium)] × 100)/((ODof the growth control−ODof the medium).) [formula] Table 3. Test series for determining IC values of hassallidin A and B in different media using Candida albicans and Candida krusei. The IC values were measured after 24 h and 48 h at 30 °C.
# [2] = test system: Aspergillus fumigatus RKI 584/00; assay: as above; conditions: RPMI-1640 medium
# Method: as §1, §2, §3
# [3] = test system: Aspergillus fumigatus RKI 914/02; assay: as above; conditions: RPMI-1640 medium
# Method: as §1, §2, §3
# [4] = test system: Candida albicans ATCC 90028; assay: as above; conditions: RPMI-1640 medium
# Method: as §1, §2, §3
# Candida spp. II = assay: as above; conditions: RPMI-1640 medium
# Method: as §1, §2, §3
# Candida spp. I = assay: as above; conditions: RPMI-1640 medium
# Method: as §1, §2, §3
# [5] = test system: Fusarium solani RKI 144/03; assay: as above; conditions: RPMI-1640 medium
# Method: as §1, §2, §3
# [6] = test system: Fusarium solani RKI 233/04; assay: as above; conditions: RPMI-1640 medium
# Method: as §1, §2, §3
# [7] = test system: L 929 (murine aneuploid fibrosarcoma) cells; assay: cytotoxicity assay, IC-Tox50 Kit, resazurin (2nd test); conditions: down to a concentration of 1.0 µg/mL; decrease of resazurin at 595 nm, 24 h
# Method: 2nd test Cytotoxicity assays were further performed using the IC-Tox50 Kit from CCS (Cell Culture Service, Hamburg) according to the manufacturers recommendations in 96-well microtitre plates. L 929 (murine aneuploid fibrosarcoma) cells were used and the activity was followed by recording the decrease of the blue pigment resazurin at 595 nm. Down to a concentration of 1.0 µg/mL a hundred percent inhibition of cell activity was determined for hassallidin A and hassallidin B. The cytotoxity assays using deposited L 929 cells were prepared as follows: • Each well contained 140 µl RPMI-1640 medium, 100 µl resazurin solution and 10 µl test solution of hassallidin A or hassallidin B at different concentrations. To obtain 10 µl test solution, 1 µl / 2 µl / 3 µl or 4µl of a 50% methanolic stock solution (25 µg/ 100 µl) were mixed with 9 µl / 8 µl / 7 µl or 6 µl 50% MeOH. For unhindered cell activity, 10 µl 50% MeOH solution was used as test solution. Solutions of 1µg Na2SeO3 / 10 µl (50% MeOH) and 2 µg Na2SeO3 /10 µl (50% MeOH) were used as positive control. • The absorption difference (t0h-t24h) of resazurin metabolised by L 929 cells is graphically represented in figure 6.
substance,measurement,setting,value
hassallidin A,antifungal activity in disk diffusion assay,Aspergillus niger,precise antifungal activity
same,antifungal activity in disk diffusion assay,Ustilago maydis,precise antifungal activity
same,IC50,[1]; 30°C/24h,4 to 8 µg/mL
same,IC80,[1]; 30°C/24h,16 µg/mL
same,IC95,[1]; 30°C/24h,16 µg/mL
same,IC50,[1]; 30°C/48h,>16 µg/mL
same,IC80,[1]; 30°C/48h,> 16 µg/mL
same,IC95,[1]; 30°C/48h,> 16 µg/mL
same,IC50,[2]; 35°C/24h,2 µg/mL
same,IC80,[2]; 35°C/24h,2 µg/mL
same,IC95,[2]; 35°C/24h,2 µg/mL
same,IC80,[2]; 35°C/48h,4 µg/mL
same,IC95,[2]; 35°C/48h,4 µg/mL
same,IC50,[3]; 35°C/24h,2 µg/mL
same,IC80,[3]; 35°C/24h,2 µg/mL
same,IC95,[3]; 35°C/24h,2 µg/mL
same,IC50,[3]; 35°C/48h,2 µg/mL
same,IC80,[3]; 35°C/48h,2 µg/mL
same,IC95,[3]; 35°C/48h,4 µg/mL
same,IC50,[4]; 35°C/24h,8 µg/mL
same,IC80,[4]; 35°C/24h,8 µg/mL
same,IC95,[4]; 35°C/24h,8 µg/mL
same,IC50,[4]; 35°C/48h,8 µg/mL
same,IC80,[4]; 35°C/48h,8 µg/mL
same,IC95,[4]; 35°C/48h,8 µg/mL
same,IC50,Candida spp. II; 35°C/24h,8 µg/mL
same,IC80,Candida spp. II; 35°C/24h,8 µg/mL
same,IC95,Candida spp. II; 35°C/24h,8 µg/mL
same,IC50,Candida spp. II; 35°C/48h,8 µg/mL
same,IC80,Candida spp. II; 35°C/48h,8 µg/mL
same,IC95,Candida spp. II; 35°C/48h,8 µg/mL
same,IC50,Candida spp. I; 35°C/24h,8 µg/mL
same,IC80,Candida spp. I; 35°C/24h,8 µg/mL
same,IC95,Candida spp. I; 35°C/24h,8 µg/mL
same,IC50,Candida spp. I; 35°C/48h,8 µg/mL
same,IC80,Candida spp. I; 35°C/48h,8 µg/mL
same,IC95,Candida spp. I; 35°C/48h,8 µg/mL
same,IC50,[5]; 30°C/24h,16 µg/mL
same,IC80,[5]; 30°C/24h,16 µg/mL
same,IC95,[5]; 30°C/24h,>16 µg/mL
same,IC50,[5]; 30°C/48h,>16 µg/mL
same,IC80,[5]; 30°C/48h,>16 µg/mL
same,IC95,[5]; 30°C/48h,>16 µg/mL
same,IC50,[6]; 30°C/24h,16 µg/mL
same,IC80,[6]; 30°C/24h,16 µg/mL
same,IC95,[6]; 30°C/24h,>16 µg/mL
same,IC50,[6]; 30°C/48h,>16 µg/mL
same,IC80,[6]; 30°C/48h,>16 µg/mL
same,IC95,[6]; 30°C/48h,>16 µg/mL
same,inhibition of cell activity,[7],a hundred
hassallidin B,antifungal activity in disk diffusion assay,Aspergillus niger,precise antifungal activity
same,antifungal activity in disk diffusion assay,Ustilago maydis,precise antifungal activity
same,inhibition of cell activity,[7],a hundred
